Experimental data taken from US8507454B2, “Methods and unit dose formulations for the inhalation administration of aminoglycoside antibiotics” (priority 2001, dated 2013).
“Also recorded” adds a separate entry of the source.

Columns and labels:
[1] = test system: Gram-negative bacteria; details: Neu 1976; cited from earlier work
[2] = Example 1: urine tobramycin recovery; format: in vivo, human; details: 7 days after prestudy or previous TOBI dose, LOQ 1.0 μg/mL
Protocol: Urine specimens were collected and combined in a 24-hour collection container during the 12 hours before treatment (−12-0 hour period) and during 0-8 hour and 8-24 hour collection periods after treatment according to instructions provided in the Study Manual. Total urine volume for the collection period was recorded, and a 10 mL aliquot from each urine collection was retained and frozen for later analysis of urine tobramycin concentration.
The recovery of tobramycin in urine (in […]) during 0-8 hour and 8-24 hour collection periods was calculated as follows. urine tobramycin recovery (μg)=urine volume (mL)·urine tobramycin concentration (μg/mL)
Urine tobramycin recovery was normalized for each collection period according to TOBI dose as follows. dose-normalized urine tobramycin recovery (μg/mg)=[urine tobramycin recovery (μg)÷TOBI dose (mg)]
The percent of the TOBI dose excreted in urine in the 24-hour period following treatment was calculated as follows. % tobramycin excreted in urine =[(urinary recovery in μg÷1000 μg/mg)÷TOBI dose in mg]·100%.
Tobramycin concentrations in urine were measured by Abbott TDxFLx® assay [urine lower limit of quantitation (LOQ)=1.0 μg/mL].

[3] = test system: P. aeruginosa isolates; details: initial sputum cultures, Children's Hospital CF Center, Seattle, 1993; cited from earlier work
[4] = test system: P. aeruginosa; details: cited from earlier work
[5] = Example 3: sputum tobramycin pharmacokinetics; format: in vivo; details: both sexes, human, inhaled, both formulations (300 mg TOBI, 420 mg TSI), read-out: Individual estimates of sputum half-life, range
Protocol: A comparison was made of the safety, pharmacokinetics, aerosol delivery characteristics, and nebulization time of the conventional dose and inhalation delivery system (5 mL ampoule containing 300 mg tobramycin and 11.25 mg sodium chloride in sterile water for injection (TOBI® tobramycin solution for inhalation, Chiron Corporation, Seattle, Wash.), pH 6.0; administered with a PART LC PLUS™ jet nebulizer with a DeVilbiss PulmoAide™ compressor set to deliver an output pressure of 20 psi—the “control delivery system”) with a dose of 420 mg Tobramycin Solution for Inhalation at 120 mg/mL (excipient 3.5 mL of ¼ normal saline adjusted to a pH of 6.0±0.5; 420 mg in 3.5 mL) delivered by the PAM LC PLUS™ jet nebulizer with a Invacare MOBILAIRE™ compressor set to deliver an output pressure of 35 psi (the “experimental delivery system”). […]
Sputum Tobramycin Concentrations: Sputum samples were expectorated by patients from a deep cough and collected before day 1 dosing (predose) and at 0.25, 1, 2, 4, and 8 h after the end of the nebulization period. […] The concentration of tobramycin was analyzed using reversed-phase high-performance liquid chromatography (HPLC) with ultraviolet detection. […] After addition of 600 μL of 60/40 acetonitrile/water (v/v), 50 μL was analyzed by HPLC. […]

[6] = Example 3: serum tobramycin pharmacokinetics; format: in vivo; details: both sexes, human, inhaled, both formulations (300 mg TOBI, 420 mg TSI), read-out: Individual estimates of serum half-life, range
Protocol: A comparison was made of the safety, pharmacokinetics, aerosol delivery characteristics, and nebulization time of the conventional dose and inhalation delivery system (5 mL ampoule containing 300 mg tobramycin and 11.25 mg sodium chloride in sterile water for injection (TOBI® tobramycin solution for inhalation, Chiron Corporation, Seattle, Wash.), pH 6.0; administered with a PART LC PLUS™ jet nebulizer with a DeVilbiss PulmoAide™ compressor set to deliver an output pressure of 20 psi—the “control delivery system”) with a dose of 420 mg Tobramycin Solution for Inhalation at 120 mg/mL (excipient 3.5 mL of ¼ normal saline adjusted to a pH of 6.0±0.5; 420 mg in 3.5 mL) delivered by the PAM LC PLUS™ jet nebulizer with a Invacare MOBILAIRE™ compressor set to deliver an output pressure of 35 psi (the “experimental delivery system”).
The study was designed as an open label, randomized, single-dose, multicenter, two treatment, active-control, and parallel trial. […]
Serum Tobramycin Concentrations: Blood samples were collected at predose and at 0.167, 1, 2, 4, 6, and 8 h after the end of the nebulization period. […] Concentrations of tobramycin in serum were analyzed with a modified fluorescence polarization immunoassay (FPIA) method using the Abbott TDx®/TDxFLx® System. […] The lower limit of quantitation was 0.050 μg/mL. […]

NC[C@H]1O[C@H](O[C@H]2[C@H](O)[C@@H](O[C@H]3O[C@H](CO)[C@@H](O)[C@H](N)[C@H]3O)[C@H](N)C[C@@H]2N)[C@H](N)C[C@@H]1O [tobramycin]
Concentrations effective in inhibiting the growth of many Gram-negative bacteria [1]: < 4 µg/mL | Measurable predose urine tobramycin concentration during period listed, individual patients ([2]; after prestudy tobramycin): Per 1 - 1.82 μg/mL; also recorded: Per 1 - 3.14 μg/mL; also recorded: Per 1 - 1.74 μg/mL; also recorded: Per 1 - 2.72 μg/mL; also recorded: Per 1 - 3.80 μg/mL | Measurable predose urine tobramycin concentration during period listed, individual patients ([2]; after previous TOBI 30 mg): Per 3 - 1.20 μg/mL | Measurable predose urine tobramycin concentration during period listed, individual patients ([2]; after previous TOBI 60 mg): Per 3 - 1.30 μg/mL; also recorded: Per 3 - 13.22 μg/mL | Measurable predose urine tobramycin concentration during period listed, individual patients ([2]; after previous TOBI 90 mg): Per 2 - 3.10 μg/mL | Measurable predose urine tobramycin concentration during period listed, individual patients ([2]; after previous TOBI 300 mg): Per 2 - 2.06 μg/mL; also recorded: Per 2 - 2.58 μg/mL; also recorded: Per 2 - 1.48 μg/mL; also recorded: Per 2 - 1.58 μg/mL; also recorded: Per 2 - 2.28 μg/mL; also recorded: Per 3 - 2.70 μg/mL; also recorded: Per 3 - 1.16 μg/mL; also recorded: Per 3^c - 1.12 μg/mL; also recorded: Per 3 - 2.08 μg/mL | MICs of 90% of isolates [3]: ≤ 16 µg/mL | MICs of 98% of all isolates [3]: ≤ 128 µg/mL | Average decrease in P. aeruginosa density, Week 0 to Week 20 ([4]; 300 mg inhaled tobramycin twice daily, 28 days on/28 days off, Ramsey 1999): 0.8 log10 | Average decrease in P. aeruginosa density, Week 0 to Week 4 ([4]; 300 mg inhaled tobramycin twice daily, Ramsey 1999): 1.9 log10 | Sputum density of P. aeruginosa ([4]; 600 mg tid aerosolized tobramycin, 71 CF patients, crossover trial, Ramsey 1993): significant reduction | half-life [5]: 28.8 to 568 min | half-life [6]: 66 to 408 min
